Results taken from patent US7345033B2, “Carbamoyl-and thiocarbamoyl-phosphonates and pharmaceutical compositions comprising them” (Yissum Research Development Company of the Hebrew …, priority 2003, dated 2008).
Where two headings read alike, the source gives them in different places.

Tests used:
[1] = test system: cancer cells; experiment: Matrigel chemoinvasion assay (Boyden chambers); format: cell-based; conditions: 6 h, read-out: Chemoinvasion % inhibition at 50 μM
Description: Matrigel Chemoinvasion Assay
This assay measures in vitro the potency of the compounds to repress the invasiveness of cancer cells, by inhibiting the MMPs produced by them. The assay uses a reconstituted basement membrane preparation, which is similar to the natural basement membranes that the tumor cells have to cross, in order to disseminate. The compounds examined have been added to the invasion chambers at various concentrations, and the resulted invasion was compared to untreated preparations.
Description of the of the Matrigel Chemoinvasion Experiment
a) The chemoinvasion assays were performed in Boyden chambers. Matrigel (25 μg) was dried on a polycarbonated filter (PVP free, Nucleopore). Fibroblast conditioned medium (obtained from confluent NIH-3T3 cells cultured in serum free DMEM) is used as the chemoattractant. […] The chambers were incubated in a humidified incubator at 37° C. in 5% CO2/95% air atmosphere for 6 h. The cells, which traversed the Matrigel layer and attached to the lower surface of the filter, were stained with Diff Quick (American Scientific Products) and counted.
The various compounds were examined as potential inhibitors at three concentrations: 100 μM, 50 μM and 10 μM.

[2] = biological target: T1, recombinant MMP-2 (Homo sapiens, UniProt P08253); experiment: MMP inhibitory potency in vitro, succinylated-gelatin colorimetric assay; format: biochemical; conditions: for times more active on MMP-2 than its analog or isomer: 11 vs 6, 9 vs 9a, 10 vs 10a, 11 vs 11a
T1 construct: purchased
T1 sequence (P08253 110-660): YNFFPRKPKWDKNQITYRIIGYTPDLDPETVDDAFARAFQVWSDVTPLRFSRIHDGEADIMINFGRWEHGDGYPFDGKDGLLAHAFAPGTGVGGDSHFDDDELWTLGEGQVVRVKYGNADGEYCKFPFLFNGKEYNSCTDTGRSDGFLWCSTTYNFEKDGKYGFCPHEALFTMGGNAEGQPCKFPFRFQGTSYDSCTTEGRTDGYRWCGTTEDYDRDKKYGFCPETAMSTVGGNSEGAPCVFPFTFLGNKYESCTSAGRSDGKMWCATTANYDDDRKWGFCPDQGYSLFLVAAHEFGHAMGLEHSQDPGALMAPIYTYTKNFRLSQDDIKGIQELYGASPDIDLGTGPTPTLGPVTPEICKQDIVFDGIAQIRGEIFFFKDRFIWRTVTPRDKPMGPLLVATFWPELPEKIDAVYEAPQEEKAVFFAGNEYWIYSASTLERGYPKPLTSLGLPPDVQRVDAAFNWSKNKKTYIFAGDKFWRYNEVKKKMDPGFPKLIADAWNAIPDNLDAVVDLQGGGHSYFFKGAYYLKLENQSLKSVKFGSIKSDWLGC
Method: (§1) Determination of MMP Inhibitory Potency (IC50 Values) in vitro
(§2) The commercially available recombinant MMP-2 and MMP-9 enzymes were incubated with succinylated-gelatin at four different concentrations for 3 h. The examined compounds were added at four to six different concentrations to the recombinant enzymes and the inhibitory potencies were expressed in a colorimetric change measured by an ELISA reader. The inhibitory activity (IC50) was calculated from the kinetic data obtained.

[3] = biological target: T2, recombinant MMP-9 (Homo sapiens, UniProt P14780); experiment: as above; format: biochemical
T2 construct: purchased
Method: as §1, §2

[4] = test system: Endothelial cells; experiment: Endothelial cell capillary tube formation; format: cell-based; conditions: read-out: Capillary Formation Inhibition % At 50 μM
Description: Endothelial Cell Capillary Tube Formation
Some of the compounds were examined as to their potency to inhibit capillary formation, which is an in vitro model of angiogenesis, an essential step in the development of primary tumor and metastatic lesions. Endothelial cell migration to the newly formed tumor is the initial phase of angiogenesis, and is dependent on MMP expression. By using this assay that measures endothelial cell tube formation, the effects of some carbamoylphosphonates on angiogenesis at concentrations ranging from 100-5 μM were evaluated.
Description of the Endothelial Cell Capillary Tube Formation Experiment
Endothelial cells are harvested by 1 mM EDTA, and added to a Matrigel layer in a 24 well plate at 50,000 cells per well. After attachment, culture media (1 ml) is added and the plate is incubated as a monolayer culture. The plates are analyzed hourly using Hoffinan optics. This assay is used to evaluate inhibitory factors or stimulatory factors on capillary like structure formation, which may be added into the culture media.

[5] = test system: murine melanoma; experiment: Tumor growth and metastasis in vivo, murine melanoma model; set-up: species or system mice; conditions: for inhibition in vivo at 50 mg/kg: Mus musculus, 504 h; for oral bioavailability: values equal the PO % reduction in murine melanoma of Table 1
Description: Tumor Growth and Metastasis in Animal Models—in vivo Test
The abilities of the novel carbamoylphosphonates to inhibit the formation of metastatic lesions in vivo were examined in the murine melanoma model both by intraperitoneal (IP) and peroral (PO) administration. […] This is especially important, since oral administration is the most convenient one for the patient, especially for long term chronic treatments such as those envisaged for drugs that are the subject of this application.

[6] = biological target: T3, MMP-1 (Homo sapiens, UniProt P03956); experiment: Selectivity towards different MMPs: MMP-1; format: biochemical; conditions: Table 2
T3 sequence (P03956 100-469): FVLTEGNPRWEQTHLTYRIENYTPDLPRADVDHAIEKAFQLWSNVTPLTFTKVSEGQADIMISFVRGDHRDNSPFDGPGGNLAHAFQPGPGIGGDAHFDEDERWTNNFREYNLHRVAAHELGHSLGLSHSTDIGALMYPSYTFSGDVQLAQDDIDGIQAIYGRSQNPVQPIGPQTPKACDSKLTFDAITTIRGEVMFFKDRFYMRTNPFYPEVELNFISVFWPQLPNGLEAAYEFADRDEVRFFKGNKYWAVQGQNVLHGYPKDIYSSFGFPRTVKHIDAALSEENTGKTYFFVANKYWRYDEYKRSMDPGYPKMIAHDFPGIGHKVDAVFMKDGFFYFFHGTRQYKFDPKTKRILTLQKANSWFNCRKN

[7] = biological target: MMP-3 (Homo sapiens, UniProt P08254); experiment: Selectivity towards different MMPs: MMP-3; format: biochemical; conditions: Table 2
[8] = biological target: MMP-8 (Homo sapiens, UniProt P22894); experiment: Selectivity towards different MMPs: MMP-8; format: biochemical; conditions: Table 2
[9] = Acute in vivo toxicity in healthy mice; conditions: daily for two weeks at 50, 250 and 500 mg/kg
Description: Determination of Acute in vivo Toxicity of Representative Carbamoylphosphonates

[10] = ip, read-out: In vivo murine melanoma % reduction IP
[11] = po, read-out: In vivo murine melanoma % reduction PO

T2 sequence (P14780 94-707, species assumed): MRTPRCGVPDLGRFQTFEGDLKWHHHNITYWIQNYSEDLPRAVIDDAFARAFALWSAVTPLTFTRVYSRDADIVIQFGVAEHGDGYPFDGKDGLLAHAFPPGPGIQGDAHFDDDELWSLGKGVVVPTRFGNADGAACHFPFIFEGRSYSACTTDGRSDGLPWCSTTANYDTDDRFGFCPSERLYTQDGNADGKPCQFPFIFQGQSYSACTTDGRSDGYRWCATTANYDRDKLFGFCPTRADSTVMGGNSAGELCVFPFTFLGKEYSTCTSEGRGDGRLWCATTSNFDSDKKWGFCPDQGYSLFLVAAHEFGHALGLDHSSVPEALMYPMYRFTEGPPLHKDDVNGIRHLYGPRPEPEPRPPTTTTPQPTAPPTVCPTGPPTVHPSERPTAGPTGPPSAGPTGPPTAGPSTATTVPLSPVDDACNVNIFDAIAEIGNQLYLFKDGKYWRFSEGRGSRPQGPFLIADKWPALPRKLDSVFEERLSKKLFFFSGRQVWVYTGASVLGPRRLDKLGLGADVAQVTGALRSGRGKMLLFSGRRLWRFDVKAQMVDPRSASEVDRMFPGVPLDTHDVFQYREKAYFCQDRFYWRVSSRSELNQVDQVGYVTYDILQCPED
Sequence of MMP-3 (P08254 100-477, species assumed): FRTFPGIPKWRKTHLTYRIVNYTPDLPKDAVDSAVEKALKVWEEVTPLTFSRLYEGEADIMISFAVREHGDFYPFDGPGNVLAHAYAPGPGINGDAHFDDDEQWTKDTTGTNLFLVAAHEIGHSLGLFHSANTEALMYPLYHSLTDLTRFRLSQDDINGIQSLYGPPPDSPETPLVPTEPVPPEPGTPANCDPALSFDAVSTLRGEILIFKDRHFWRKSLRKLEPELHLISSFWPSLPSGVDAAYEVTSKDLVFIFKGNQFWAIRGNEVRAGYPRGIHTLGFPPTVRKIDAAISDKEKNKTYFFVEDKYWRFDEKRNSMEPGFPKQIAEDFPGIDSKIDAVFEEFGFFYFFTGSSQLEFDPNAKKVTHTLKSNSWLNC
Sequence of MMP-8 (P22894 101-467, species assumed): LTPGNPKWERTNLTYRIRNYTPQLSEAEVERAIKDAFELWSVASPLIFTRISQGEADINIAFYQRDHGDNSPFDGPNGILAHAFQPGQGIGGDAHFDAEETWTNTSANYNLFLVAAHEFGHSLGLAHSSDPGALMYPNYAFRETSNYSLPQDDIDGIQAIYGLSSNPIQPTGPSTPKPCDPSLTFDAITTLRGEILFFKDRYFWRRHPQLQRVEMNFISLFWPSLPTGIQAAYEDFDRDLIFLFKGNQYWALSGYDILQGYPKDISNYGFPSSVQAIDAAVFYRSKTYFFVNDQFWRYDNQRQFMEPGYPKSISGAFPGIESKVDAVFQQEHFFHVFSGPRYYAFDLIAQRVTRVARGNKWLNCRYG

SMILES	inhibition at 50 µM [1] [%]	IC50 [2] [nM]	IC50 [3] [µM]	inhibition at 50 µM [4] [%]	inhibition in vivo at 50 mg/kg [5, 10] [%]	inhibition in vivo at 50 mg/kg [5, 11] [%]	IC50 [6] [nM]	IC50 [7] [nM]	IC50 [8] [nM]	melting point [°C]	IC50 ([2]; Table 1, read-out: MMP-2 IC50) [nM]	also measured
O=C(N[C@@H]1C[C@@H]2CC[C@H]1C2)P(=O)(O)O (relative stereo) [Compound 10, N-[endo-2-norbornyl]carbamoylphosphonic acid]	25	100	> 100	30	87	80	> 100000	> 100000	> 100000	164 to 165	–	times more active on MMP-2 than its analog or isomer [2]: 150 times; IC50 ([3]; read-out: MMP-9 IC50 μM, Table 2): > 100 µM
O=C(N[C@@H]1C[C@H]2CC[C@@H]1C2)P(=O)(O)O (relative stereo) [Compound 10a, N-[exo-2-norbornyl]carbamoylphosphonic acid]	–	15000	> 100	–	–	–	1000	> 100000	> 100000	170 to 172	–	–
N[C@H]1CCCC[C@@H]1NC(=O)P(=O)(O)O (relative stereo) [Compound 11a, Trans-2-aminocyclohexylcarbamoyl phosphonic acid]	–	20000	> 100	–	–	–	90000	25000	50000	–	–	–
O=C(NC1CCCC1)P(=O)(O)O [Compound 1, CyclopentylNHCOPO3H2]	65	–	–	70	72	71	–	–	–	–	80	toxicity [9]: toxic at 250 mg/kg and 500 mg/kg doses
O=P(O)(O)C(=S)NC1CCCC1 [Compound 2, CyclopentylNHCSPO3H2]	70	70	50	–	56	70	–	–	–	–	–	–
O=C(NC1CCCCC1)P(=O)(O)O [Compound 3, CyclohexylNHCOPO3H2]	46	–	–	50	64	–	–	–	–	–	3000	–
O=P(O)(O)C(=S)NC1CCCCC1 [Compound 4, CyclohexylNHCSPO3H2]	50	100	> 100	38	68	–	–	–	–	–	–	–
O=C(NCC1CCCCC1)P(=O)(O)O [Compound 5, cyclohexylmethyl carbamoylphosphonic acid]	50	–	–	53	69	14	–	–	–	–	200	IC50 ([3]; Table 1, read-out: MMP-9 IC50): 1 µM; oral bioavailability [5]: 14%
NCCNC(=O)P(=O)(O)O [Compound 6, H2N(CH2)2NHCOPO3H2]	45	800	2	43	57	–	–	–	–	–	–	–
CN(C)CCNC(=O)P(=O)(O)O [Compound 7, Me2N(CH2)2NHCOPO3H2]	66	30	20	75	75	29	–	–	–	–	–	–
O=P(O)(O)C(=S)NCC1CCCCC1 [Compound 8, N-(Cyclohexylmethyl)thiocarbamoylphosphonic acid]	70	15	0.015	75	80	80	–	–	–	–	–	oral bioavailability [5]: improved oral bioavailability
C[C@@H](NC(=O)P(=O)(O)O)C1CCCCC1 [Compound 9, N—[(R)-1-Cyclohexylethyl]carbamoylphosphonic acid]	–	–	–	35	–	–	> 100000	> 100000	> 100000	155 to 156	200	inhibition at 50 µM ([1]; 50 μM, Matrigel): 33%; times more active on MMP-2 than its analog or isomer [2]: five times more active; IC50 ([2]; Table 2, read-out: MMP-2 IC50): 200 nM; IC50 ([3]; Table 1, read-out: MMP-9 IC50): ≥ 100 µM; IC50 ([3]; Table 2, read-out: MMP-9 IC50): > 100 µM; inhibition in vivo at 50 mg/kg ([5]; IP, 50 mg/kg daily for 21 days, lung tumors counted, read-out: In vivo murine melanoma % reduction IP): 68%; inhibition in vivo at 50 mg/kg ([5]; PO, 50 mg/kg daily for 21 days, lung tumors counted, read-out: In vivo murine melanoma % reduction PO): 90%; oral bioavailability [5]: 90%
C[C@H](NC(=O)P(=O)(O)O)C1CCCCC1 [Compound 9a]	–	–	–	–	–	–	2000	100	> 100000	167 to 168	–	IC50 ([2]; Table 2, read-out: MMP-2 IC50): 1000 nM; IC50 ([3]; Table 2, read-out: MMP-9 IC50): 10 µM
